ChEMBL document CHEMBL1126838 (J Med Chem, 1993)

Molecular target: Tyrosine-protein kinase Lck (Homo sapiens, UniProt P06239)
Experiment: Tested in vitro for the inhibition of protein-tyrosine kinase p56lck using angiotensin I (1.2 mM) and [gamma-32P]-ATP (50 µM)

Sequence of Tyrosine-protein kinase Lck (P06239 whole entry): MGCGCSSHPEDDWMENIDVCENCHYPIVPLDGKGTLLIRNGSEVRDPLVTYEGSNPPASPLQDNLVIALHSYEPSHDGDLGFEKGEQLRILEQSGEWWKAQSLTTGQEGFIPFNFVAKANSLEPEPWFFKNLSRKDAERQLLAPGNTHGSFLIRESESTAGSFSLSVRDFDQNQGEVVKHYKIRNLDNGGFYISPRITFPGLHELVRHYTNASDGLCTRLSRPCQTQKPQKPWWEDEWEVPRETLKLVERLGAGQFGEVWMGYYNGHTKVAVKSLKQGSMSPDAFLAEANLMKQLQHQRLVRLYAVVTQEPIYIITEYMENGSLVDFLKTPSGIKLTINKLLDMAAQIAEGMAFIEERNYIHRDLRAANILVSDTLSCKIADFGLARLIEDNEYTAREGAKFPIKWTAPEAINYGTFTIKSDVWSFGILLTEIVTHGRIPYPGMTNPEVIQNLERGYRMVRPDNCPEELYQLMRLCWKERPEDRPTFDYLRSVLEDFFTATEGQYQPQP

IC50 [µM]	SMILES
234	Oc1cccc(/C=C/c2cccc(O)c2)c1
> 2030	C(=C\c1cc(OCc2ccccc2)cc(OCc2ccccc2)c1)/c1ccc(OCc2ccccc2)cc1
> 2030	C(=C\c1ccc(OCc2ccccc2)c(OCc2ccccc2)c1)/c1ccc(OCc2ccccc2)cc1
> 2030	C(=C\c1cc(OCc2ccccc2)cc(OCc2ccccc2)c1)/c1cccc(OCc2ccccc2)c1
487	Oc1cc(O)cc(CCc2cc(O)cc(O)c2)c1
> 2030	C(=C\c1ccc(OCc2ccccc2)c(OCc2ccccc2)c1)/c1ccccc1
16	Oc1cc(O)cc(/C=C/c2cc(O)cc(O)c2)c1
58	Oc1cccc(/C=C/c2ccc(O)c(O)c2)c1
> 2030	C(=C\c1ccc(OCc2ccccc2)c(OCc2ccccc2)c1)/c1cccc(OCc2ccccc2)c1
19	Oc1ccc(/C=C/c2ccc(O)c(O)c2)cc1
1560	Oc1cc(O)cc(CCc2ccc(O)c(O)c2)c1
74	Oc1ccc(/C=C/c2ccc(O)c(O)c2)cc1O
17	Oc1cccc(/C=C/c2cc(O)cc(O)c2)c1
203	Oc1ccc(/C=C/c2ccccc2)cc1O [(E)-3,4-STILBENDIOL]
193	Oc1cc(O)cc(/C=C/c2ccccc2)c1 [PINOSYLVIN]
112	Oc1ccc(/C=C/c2cc(O)cc(O)c2)cc1 [RESVERATROL]

SMILES	IC50 [µM]
C(=C\c1cc(OCc2ccccc2)cc(OCc2ccccc2)c1)/c1ccccc1	> 2030
